Assay [1] is described as follows: Conventional hair-care effects (combability, luster, volume, friction). Particulars: in appropriate formulations. From the text: This is in stark contrast to the known hair-care actions of other representatives of this class of substances, for example of betaine (trimethylammonioacetate) or carnitine [3-hydroxy-4-(trimethylammonio)butyric acid]. […] Other hair-care criteria such as an increase in hair volume or an improvement in the hair fullness or hair styling were also not observed.
Tests for determining the triboelectric properties have also shown that depending on the use concentration of compounds of formulas (I) and (II) the electrostatic chargability of hair was reduced. […] This is particularly surprising considering that in no comparative test did the formulation containing as active ingredient a compound of formula (I) and (II) show a reduction in the mechanical coefficient of friction. […] The protective function therefore is independent of the typical hair-care criteria and consists only of attenuating the effects of hair-damaging factors.

For assay [2] the following is noted: bleached hair, cycles until 63.2% of hairs are broken. From the text: The measurements of rubbing resistance make it possible to draw conclusions concerning the resistance of the hair to mechanical stresses. The measuring principle consists of exposing individual hair fibers to repeated (small) mechanical stresses and measuring the number of repeating cycles needed to make the material break. A higher number of stressing cycles indicates a higher resistance of the hair to mechanical stresses. The evaluation of the hair resistance test results, which initially consists only of determining the number of stressing cycles to hair breakage for each individual hair, is carried out by Weibull's reliability analysis. According to Weibull, the breakage frequency (here: hair breakage) can be described by the following equation: H=1−exp[−(x/Θ)]b linearized: lnln[1/(1−H)]=b(ln x)−b(ln Θ) H=breakage frequency (=cumulated hair breakage), normalized to 1 (1=100%) X=lifetime variable (=cycles to hair breakage) Θ=characteristic lifetime (number of cycles until 63.2% of the hairs are broken) b=shape parameter, slope of the fitted straight lines.
For the Weibull analysis, therefore, that data must be plotted as lnln(1/1−H) against Inx. After linear regression, the axial segment indicates b(ln Θ) and the slope gives b. The characteristic lifetime E is then obtained from exp[−(axial segment/slope)]. The longer the characteristic lifetime, the higher is the resistance of the hair to breakage.
Another important parameter for determining the condition of the hair or the degree of damage to the hair is the determination of the rubbing resistance as a measure of the mechanical weakening of the hair (see legend for FIG. 1) [sic].
To this end, after previous standardized bleaching, strands of human hair (of Caucasian origin), were subjected to the strongly weakening conditions of a permanent wave procedure or a hair tinting by standardized methods. Then, the ends of 20 individual hairs per sample, namely of 10 individual hairs per strand, were fastened to holders, and the rubbing resistance was measured.

For assay [3] the following is noted: active present in permanent wave products, compared to otherwise identically treated hair. The text has this: Tear strength is viewed as a parameter for determining damage to hair; the higher the force needed to tear a hair, the better is the hair quality.
The conditions of assay [4]: shampoo as in Example 6, 2.0 wt. % active; 20 hairs; control without active 12.0. How it is done:
The determination of the tear strength of hair, which is an indicator of the structural integrity of the hair cortex and thus a measure of the degree of damage, was carried out by tensile-elongation measurements common for these purposes. From each hair strand we selected 20 individual hairs and determined the individual hair diameters with a computer-controlled laser micrometer. Then, by means of a tensile-elongation tester (MTT 160/600 Series Miniature Tensile Tester, Serial No. 600.95.05.001, supplied by DIA-STRON Ltd, England), the force needed to tear the individual hairs was measured.
From these individual tear strength measurements which because of the different hair diameters gave different values, the bundle tensile strength (BTS) was calculated by taking 0.08 mm for a hair diameter (average diameter). By including the hair density, finally, the conversion into the unit of bundle tensile strength (cN/tex) was performed. The higher the numerical value of the bundle tensile strength, the lower is the hair damage.

Each structure is given as a SMILES string. “And” between values parts separate entries of the source, which are not always exact repeats. Equal entries are not always repeated. Where two headings read alike, the source gives them in different places.

As for `C[n+]1cccc(C(=O)[O-])c1.Cl` [1-Methylpyridinium-3-carboxylate hydrochloride], for the setting “preparation containing 1% as the hydrochloride”, the antistatic effect entry is “statistically probable antistatic effect”.

`C[N+](C)(C)CC(=O)[O-]` [betaine, trimethylammonioacetate]: in assay [1], the combability entry is “pronounced improvement” and the “luster of the hair” value was “definitely improved”.

Take `C[n+]1cccc(C(=O)[O-])c1` [1-methylpyridinium-3-carboxylate]: the “Characteristic Lifetime” value in assay [2] (hair tinting agent + 0.1% active) is “increase”; in assay [2] (hair tinting agent + 0.1% active, listed as 1-methylpyridium-3-carboxylate), 568; in assay [2] (hair tinting agent + 1% active), “even higher than those shown by the chemically untreated (unbleached, natural) hair”; in assay [2] (hair tinting agent + 1% active, listed as 1-methyl-pyridinium-3-carboxylate) it was “further increase”; in assay [2] (hair tinting agent + 1% active, listed as 1-methylpyridium-3-carboxytate), 643; in assay [2] (permanent wave formulation with 0.5% active, listed as 1-methylpyridium-3-carboxylate), 546. Moreover, the tear strength result in assay [3] is on record as “significant increase”. For the same compound, the “bundle tensile strength (BTS)” value in assay [4] is 12.64±0.4 cN/tex and 12.64 cN/tex. Besides, the “hair strand volume after combing (electrostatic charge)” value (bleached strands, hair-treatment preparation with 0.5% active, 5 minutes, vs untreated control) was “obviously smaller volume than the untreated control hairs”.

These data come from US20070160553A1, “Use of agents for the cosmetic treatment of keratin-containing material” (WELLA AG, priority 2004, published 2007).
